Reference: patent EP4696689A1, “SALT FORM AND CRYSTAL FORM OF CHIRAL HETEROCYCLIC COMPOUND HAVING HEDGEHOG PATHWAY ANTAGONIST ACTIVITY” (Suzhou Kintor Pharmaceuticals, Inc., priority 2023, dated 2024)
Where two headings read alike, the source gives them in different places.

How the values were obtained:
[1] = pharmacokinetic study in mice; details: same dose, intragastric administration
in vivo = details: mouse, in vivo, po, 10 mg/kg
Description: The collected plasma samples were subjected to a protein precipitation method by using an organic reagent according to the following method to extract test article in the plasma, and the extracted sample was subjected to quantitative concentration analysis through the LC-MS/MS.
Meanwhile, an accompanying standard curve and quality control samples were prepared for quantitative analysis.
The fumarate salt form F of the compound of formula (I) Group: 50 µL of plasma at each time point was taken, 400 µL of acetonitrile was added, vortex mixing and centrifugation was performed at 10000 rpm for 10 min, and a 200 µL supernatant for LC-MS/MS analysis was taken. Meanwhile, an accompanying standard curve and quality control samples were prepared for quantitative analysis.
According to the plasma drug concentration data obtained through analysis, the main pharmacokinetic parameters were calculated according to the non-atrioventricular model by using Kinetic software (Version 5.0).

[2] = dynamic solubility in water and three biological solvents; format: physicochemical; details: 37°C, feed 5 mg/ml, read-out: S: solubility
Description: Finally, the volume is fixed with purified water.
(§1) 0.17 g of sodium dihydrogen phosphate (NaH2PO4, anhydrous), 0.021 g of sodium hydroxide and 0.31 g of sodium chloride were weighed into a 50 mL volumetric flask respectively, about 48 mL of purified water was added for dissolution, the pH was adjusted to exactly 6.5 with 1M hydrochloric acid or 1M sodium hydroxide, and the volume was fixed with purified water. 0.11 g of SIF powder was then added, stirred and sonicated to completely dissolve the powder. The solution can be used only after being placed at room temperature for two hours to reach equilibrium.
as §1, with “0.41 mL” for “0.17 g”, “glacial acetic acid, 0.20” for “sodium dihydrogen phosphate (NaH2PO4, anhydrous), 0.021”, “0.59” for “0.31”, “respectively, and” for “respectively,”, “5.0” for “6.5”, “0.56” for “0.11”
The solubility results of the two samples in SGF, FASSIT and FeSSIF are similar. […] Table 4-1 Summary of the dynamic solubility test results

[3] = SCID tumor-bearing mice, i.g. BID × 3 days
[4] = pH 1.8, simulated gastric fluid, thermodynamic from solid, SGF
[5] = pH 5, thermodynamic from solid, FeSSIF
[6] = pH 6.5, thermodynamic from solid, FaSSIF
[7] = water, thermodynamic from solid, H2O

Structure (SMILES): Cc1cnc(-c2cc(N3CCc4nc(N5CCC(O)CC5)ncc4[C@H]3C)ncc2Cl)c(C)c1 [Fumarate crystal form F]
- Cmax higher than that of the positive drug GDC-0449 [1]: about 1 fold
- AUC(0-inf) (in vivo): 16700 ng·h/mL
- AUC(0-t) (in vivo): 7500 ng·h/mL
- Cmax (in vivo): 2410 ng/mL
- MRT (in vivo): 15.6 h
- Tmax (in vivo): 15 min
- half-life (in vivo): 742 min
- solubility at 1 h [2, 4]: 3600 µg/mL
- solubility at 2 h [2, 4]: 3500 µg/mL
- solubility at 4 h [2, 4]: 3600 µg/mL
- solubility at 24 h [2, 4]: 3500 µg/mL
- solubility at 1 h [2, 5]: 2500 µg/mL
- solubility at 2 h [2, 5]: 2800 µg/mL
- solubility at 4 h [2, 5]: 3100 µg/mL
- solubility at 24 h [2, 5]: 3100 µg/mL
- solubility at 1 h [2, 6]: 220 µg/mL
- solubility at 2 h [2, 6]: 210 µg/mL
- solubility at 4 h [2, 6]: 230 µg/mL
- solubility at 24 h [2, 6]: 210 µg/mL
- solubility at 1 h [2, 7]: 110 µg/mL
- solubility at 2 h [2, 7]: 130 µg/mL
- solubility at 4 h [2, 7]: 140 µg/mL
- solubility at 24 h [2, 7]: 150 µg/mL
- abnormal behaviors or animal deaths during the administration period [3]: no abnormal behaviors or animal deaths
